Laboratory results: the NIST ThermoML archive (doi:10.1021/je101230a)
± gives the expanded uncertainty stated by the source.

Conditions: Crystal; DTA

Normal melting temperature: 198.00 ± 1.1 °C
Structure (SMILES): CCc1ccc(CCOc2ccc(CC3SC(=O)NC3=O)cc2)nc1.Cl (stereo unspecified)
